According to patent US10556860B2, “hTERT modulators and methods of use” (Arizona Board of Regents on Behalf of the University of …, priority 2015, dated 2020):

What was measured:
[1] = system: BCL2 mRNA in WT and G146A melanoma cells; assay: qPCR of BCL2 mRNA in melanoma cells; assay type: cell-based, human; details: 72 h
Protocol: Cell cultures. MCF7 and melanoma (UACC 383) cells were cultured in media of RPMI-1640 with 10% FBS and 1% penicillin/streptomycin. For melanoma cells UACC 2512, UACC 3090, UACC 1729, and UACC 2528, 20% FBS was included in the RPMI media instead of 10% FBS. Cells were incubated at 37° C. with 5% CO2.
qPCR. MCF7 and melanoma cells were treated with GTC365 and BRACO-19 for 72 h. Total RNA was extracted using an RNeasy mini-prep kit (Qiagen) and quantitated by measuring absorbance at 260 nm. cDNA was synthesized using a Takara PrimeScript™ RT Reagent Kit with gDNA eraser and then used as a template for qPCR. The qPCR was performed using Kapa Probe Fast qPCR Master Mix with ABI Taqman probes of hTERT (Hs00972656_m1), BCL2 (HS00608023_m1, FAM-labeled) or MYC (Hs00153408_m1), and GAPDH (Hs02758991_g1, VIC-labeled). The Ct values were measured by running Rotor-Gene Q, and the relative quantity of hTERT, BCL2, and MYC mRNA was obtained compared to GAPDH as an internal control.
To determine the cellular effect of GTC365 on proliferation as well as suppression of the activation of hTERT by G124A, G124/125A, G138/139A, and G146A mutants, melanoma cell lines were used alongside a WT cell line. All mutants increased the mRNA level of hTERT, compared to WT melanoma cells, in the 6.6-34-fold range. […]

[2] = system: G124/125A 5-12 G-quadruplex; assay: CD kinetics, temperature-jump, G124/125A; assay type: biochemical, human; details: 2 equiv
Protocol: FIGS. 10A and 10B are a set of graphs showing (A) comparison of kinetics of initial folding rate of the WT 5-12 G-quadruplex with GTC365 and BRACO-19 by the temperature-jump method. (B) Enhanced initial folding rate of the 5-12 G-quadruplexes carrying different hTERT mutants by GTC365. The time-course CD signal of preheated oligo with compound or DMSO in a buffer containing 10 mM Tris-HCl (pH 7.5) and 5 mM KCl was monitored at 262 nm and 25° C.
For the kinetics analysis using the temperature-jump method, theoligo in a buffer containing 10 mM Tris-HCl (pH 7.5) was heated forl min at 95° C., and then a mixture of KCl and compound was addedand incubated for 1 min. Meanwhile, the CD cuvette was also heatedat 95° C. As soon as the sample in the CD cuvette at the hightemperature was placed in the CD chamber, a time-dependent CDsignal at 262 nm was recorded immediately. The initial folding ratewas determined by one-phase association curve fitting (eq 1) of thekinetics curve using GraphPad Prism 5: Y=Y0+(Plateau−Y0)*(1−e^−kx) (1) where Y is the CD signal at any time point x, Y0 is the Y value whentime (x) is zero, plateau is the Y value at infinite time, and k is the rateconstant.
To evaluate the comparative effects of GTC365 relative to BRACO-19 on the cooperative folding process, we carried out two different experiments. […]

N=C(N)NCCCS(=O)(=O)Nc1ccc(Nc2c3ccccc3nc3cc([N+](=O)[O-])ccc23)cc1 [GTC365]
mRNA level of BCL2 [1]: decreased
increase of initial folding rate [2]: 0.042 s⁻¹
